The values below come from patent publication US5604262A, “Topical antimicrobial agents” (Research Corporation Technologies, Inc., priority 1995, dated 1997).

One may read the MIC as the least concentration at which growth counts as inhibited.

Data set [1] relates to fungi. Particulars: Moleyar et al. 1986; cited from earlier work.
In data set [2] the test system is Bacillus subtilis ATCC 9372. The experiment in a line: MIC by two-fold serial broth dilution. In kind it is cell-based. Particulars: Bacillus subtilis, ATCC9372, 48 h; B. subtilis; NYG broth; two days, turbidity OD 660 nm. The source says:
(§1) The microorganisms tested were from the American Type Culture Collection (Rockville, Md.). They are Bacillus subtilis ATCC 9372, Brevibacterium ammoniagenes ATCC 6872, Staphylococcus aureus ATCC 12598, Streptococus mutans ATCC 25175, Propionibacterium acnes ATCC 11827, Pseudimonas aeruginosa ATCC 10145, Enterobacter aerogenes ATCC 13048, Eschericia coli ATCC 9637, Proteus vulgaris ATCC […], Saccharomyces cerevisiae ATCC 7754, Candida utilis ATCC 9226, Pityrosporum ovale ATCC 14521, Penicillium chrysogenum ATCC 10106 and Trichophyton mentagrophytes ATCC 18748.
(§2) The bacterial culture media except for S. mutans was 0.8% nutrient broth (BBL), 0.5% yeast Extract (Difco) and 0.1% glucose (NYG broth). S. mutans was cultured in 3.7% brain heart infixsion broth (Difco). All fungi, except P. ovale and T. mentagrophytes were cultured in a 2.5% malt extract broth (BBL). P. ovale was cultured in 1% bactopeptone (Difco), 0.5% yeast extract, 1% glucose and 0.1% corn oil. For T. mentagrophytes the culture media was 1% bactopeptone and 4% glucose.
(§3) Freeze dried samples were prepared for testing as follows. B. subtilis, S. cerevisiae, C. utilis, and P. ovale, were shake-cultured for two days at 30° C. P. chrysogenum and T. mentagrophytes were shake-cultured for 5 days at 30° C. B. ammoniagenes and E. aerogenes were stationarily cultured at 30° C. S. aureus, S. mutans, P. acnes, P. aeruginosa, E. coli and P. vulgaris were stationarily cultured at 37° C.
(§4) The minimum inhibitory concentration (MIC) of the 3-alken-2-ones (compounds 1-4, 6-8) and 3,13-tetradecadien-2-one (compound 5) was performed using a two-fold serial broth dilution. Each test compound was dissolved in DMF and 30 μL of this sample was dissolved in 3 mL of the applicable medium. A 30 μL sample of the previously described culture of each microorganism was added to the various medium solutions. After two days, the cultures of B. subtilis, S. cerevisiae, C. utilis B. ammoniagenes, E. aerogenes, S. aureus, S. mutans, P. acnes, P. aeruginosa, E. coli and P. vulgaris were examined for turbidity (OD at 660 nm). The fungi, P. ovale, P. chrysogenum and T. mentagrophytes, were examined visually for growth at 3 days (P. ovale) and 5 days (P. chrysogenum and T. mentagrophytes). The MIC was determined as the lowest concentration for each compound that no growth was observed. The highest concentration used in these tests was 800 μg/mL.

For data set [3], the system named is Brevibacterium ammoniagenes ATCC 6872. The experiment in a line: MIC by two-fold serial broth dilution. In kind it is cell-based. The settings on record: Corynebacterium ammoniagenes, ATCC6872, 48 h; B. ammoniagenes; NYG broth; two days, turbidity OD 660 nm.
Text: as §1, §2, §3, §4
A general note: In broth dilution the organism is exposed to a series of concentrations in liquid medium.

The test system of data set [4] is Enterobacter aerogenes ATCC 13048. Nature of the data set: MIC by two-fold serial broth dilution. The format is cell-based. Particulars: Klebsiella aerogenes, ATCC13048, 48 h; E. aerogenes; NYG broth; two days, turbidity OD 660 nm.
Text: as §1, §2, §3, §4

Data set [5] has as its system Eschericia coli ATCC 9637. Nature of the data set: MIC by two-fold serial broth dilution. In kind it is cell-based. Particulars: Escherichia coli, ATCC9637, 48 h; E. coli; NYG broth; two days, turbidity OD 660 nm.
Text: as §1, §2, §3, §4

Data set [6] has as its system Penicillium chrysogenum ATCC 10106. The experiment in a line: MIC by two-fold serial broth dilution. In kind it is cell-based. Particulars: Penicillium chrysogenum, ATCC10106, 120 h; P. chrysogenum; malt extract broth; 5 days, visual.
Text: as §1, §2, §3, §4

Data set [7] relates to Pityrosporum ovale ATCC 14521. Nature of the data set: MIC by two-fold serial broth dilution. The format is cell-based. Particulars: 72 h; P. ovale; bactopeptone/yeast extract/glucose/corn oil; 3 days, visual.
Text: as §1, §2, §3, §4

In data set [8] the test system is Propionibacterium acnes ATCC 11827. The experiment in a line: MIC by two-fold serial broth dilution. The format is cell-based. Particulars: P. acnes.
Text: as §1, §2, §3, §4

Data set [9] has as its system Proteus vulgaris ATCC 133315. The experiment in a line: MIC by two-fold serial broth dilution. In kind it is cell-based. The settings on record: ATCC133315, 48 h, P. vulgaris, NYG broth, two days, turbidity OD 660 nm.
Text: as §1, §2, §3, §4

The subject of data set [10] is Pseudimonas aeruginosa ATCC 10145. The experiment in a line: MIC by two-fold serial broth dilution. In kind it is cell-based. Particulars: Pseudomonas aeruginosa, ATCC10145, 48 h; P. aeruginosa; NYG broth; two days, turbidity OD 660 nm.
Text: as §1, §2, §3, §4

In data set [11] the test system is Saccharomyces cerevisiae ATCC 7754. The experiment in a line: MIC by two-fold serial broth dilution. In kind it is cell-based. The settings on record: Saccharomyces cerevisiae, ATCC7754, 48 h; S. cerevisiae; malt extract broth; two days, turbidity OD 660 nm.
Text: as §1, §2, §3, §4

Data set [12] concerns Staphylococcus aureus ATCC 12598. The experiment in a line: MIC by two-fold serial broth dilution. In kind it is cell-based. The settings on record: Staphylococcus aureus, ATCC12598, 48 h; S. aureus; NYG broth; two days, turbidity OD 660 nm.
Text: as §1, §2, §3, §4

In data set [13] the test system is Streptococus mutans ATCC 25175. Nature of the data set: MIC by two-fold serial broth dilution. Particulars: Streptococcus mutans, ATCC25175, 48 h; S. mutans; brain heart infusion broth; two days, turbidity OD 660 nm. The format is cell-based.
Text: as §1, §2, §3, §4

The subject of data set [14] is Trichophyton mentagrophytes ATCC 18748. Nature of the data set: MIC by two-fold serial broth dilution. In kind it is cell-based. The settings on record: ATCC18748, 120 h, T. mentagrophytes, bactopeptone/glucose, 5 days, visual.
Text: as §1, §2, §3, §4

For data set [15], the system named is Candia utilis ATCC 9226. The experiment in a line: MIC by two-fold serial broth dilution. In kind it is cell-based, Candida utilis. The settings on record: Williopsis jadinii, ATCC9226, 48 h; C. utilis; malt extract broth; two days, turbidity OD 660 nm.
Text: as §1, §2, §3, §4

In data set [16] the test system is bacteria and fungi in the test, except S. mutans and P. acnes. The experiment in a line: MIC test, all bacteria and fungi except S. mutans and P. acnes. In kind it is cell-based. Particulars: all of the bacteria and fungi in the test.
Text: as §1, §2
Freeze dried samples were prepared for testing as follows. […]
The minimum inhibitory concentration (MIC) of the 3-alken-2-ones (compounds 1-4, 6-8) and 3,13-tetradecadien-2-one (compound 5) was performed using a two-fold serial broth dilution. […] The MIC was determined as the lowest concentration for each compound that no growth was observed. […]

The subject of data set [17] is S. mutans. Particulars: Kubo et al. 1993; cited from earlier work.
The conditions of data set [18]: background statement; cited from earlier work.

≈ marks a conversion by molar mass, not a printed value.

On to `C=C(C)C1CC=C(C)C(=O)C1` (centres unmarked) [Carvone], for which, in data set [1], the “antifungal activity (in words)” value is “antifungal activity”.
Turning to `CCCCCCCCCCCCC/C=C/C(C)=O` [Compound 8, (E)-3-Heptadecen-2-one], the MIC in [2], in data set [3], in data set [4], in [5], in data set [6] and in data set [7] was above 800 µg/mL in each case. In addition, the MIC in data set [8] (Cutibacterium acnes, ATCC11827, 48 h, NYG broth, two days, turbidity OD 660 nm) was 3.13 µg/mL (≈ 0.0124 mM); in [9], above 800 µg/mL; in [10], above 800 µg/mL; in data set [11], above 800 µg/mL; in data set [12] it was above 800 µg/mL; in data set [13] it was 800 µg/mL (≈ 3.17 mM). For the same compound, the MIC in [14] and in [15] was above 800 µg/mL throughout. In addition, the “activity (in words)” value in data set [8] is “strong activity”; in data set [16], “inactive”.
For the compound `CC(=O)/C=C/C1C(C)=CCCC1(C)C` (stereo not drawn) [α-ionone], the “antibacterial activity (in words)” value in data set [17] is given as “moderate antibacterial activity”.
`CC(=O)/C=C/C1=C(C)CCCC1(C)C` [β-ionone]: the “antibacterial activity (in words)” value in [17] was “moderate antibacterial activity”.
For ionone, in data set [18], the allergic skin reactions entry was “can cause allergic skin reactions”.
